For the data set the following is noted: Crystal; visual observation.

Each structure is given as a SMILES string. Numbers after ± are expanded uncertainties.

Turning to `CC1(C)COP(=O)(C(Nc2ccccc2)c2ccccc2)OC1` (stereo unspecified), the Normal melting temperature was 175 ± 2 °C.
